Data taken from patent publication US20260234147A1 (priority 2023, published 2026).
Where two headings read alike, the source gives them in different places.

Legend:
hMOR = hMOR (Homo sapiens, UniProt P35372); experiment: Radioligand binding assay (Eurofins Cerep), [3H]DAMGO displacement
hDOR = hDOR (Homo sapiens, UniProt P41143); experiment: Radioligand binding assay (Eurofins Cerep), [3H]DADLE displacement
hKOR = hKOR (Homo sapiens, UniProt P41145); experiment: Radioligand binding assay (Eurofins Cerep), [3H]U69,593 displacement
hKOR, sequence (P41145 whole entry): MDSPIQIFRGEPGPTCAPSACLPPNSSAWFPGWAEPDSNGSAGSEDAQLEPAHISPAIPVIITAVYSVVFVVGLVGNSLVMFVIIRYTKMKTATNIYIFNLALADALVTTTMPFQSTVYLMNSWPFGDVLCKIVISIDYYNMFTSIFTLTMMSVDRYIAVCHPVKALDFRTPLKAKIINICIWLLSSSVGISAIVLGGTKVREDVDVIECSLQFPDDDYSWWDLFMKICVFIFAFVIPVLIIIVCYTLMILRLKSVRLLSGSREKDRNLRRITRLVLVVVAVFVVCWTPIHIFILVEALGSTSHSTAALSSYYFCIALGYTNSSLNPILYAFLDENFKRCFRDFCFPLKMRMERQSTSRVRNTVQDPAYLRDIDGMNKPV

α2A adrenergic receptor = target: T1, α2A adrenergic receptor (Homo sapiens, UniProt P08913); experiment: Radioligand binding assay (Eurofins Cerep), [3H]RX 821002 displacement
T1 construct: Eurofins Cerep (contract screening)
T1 sequence (P08913 1-465): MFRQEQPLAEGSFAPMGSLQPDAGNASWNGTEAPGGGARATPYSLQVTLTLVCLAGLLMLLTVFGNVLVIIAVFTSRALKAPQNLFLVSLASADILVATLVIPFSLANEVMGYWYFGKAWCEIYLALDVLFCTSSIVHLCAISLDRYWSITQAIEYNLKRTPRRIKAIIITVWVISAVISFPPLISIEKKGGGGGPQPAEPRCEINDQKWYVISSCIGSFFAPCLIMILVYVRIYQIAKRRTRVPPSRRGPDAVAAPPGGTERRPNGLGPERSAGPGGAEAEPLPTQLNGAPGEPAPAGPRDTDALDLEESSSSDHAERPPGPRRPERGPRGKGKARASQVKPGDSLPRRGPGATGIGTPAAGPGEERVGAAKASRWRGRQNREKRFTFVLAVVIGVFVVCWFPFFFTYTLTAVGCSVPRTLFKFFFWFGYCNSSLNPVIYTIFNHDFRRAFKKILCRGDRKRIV

[1] = Table B1′, read-out: MOR Ki ± SEM
[2] = Table B1′, read-out: DOR Ki ± SEM
[3] = Table B1′, read-out: KOR Ki ± SEM
[4] = alpha2A Ki ± SEM (nM), Table B1′
[5] = Table B1′, read-out: alpha2A Ki ± SEM
[6] = Table 3-2, 3 independent experiments, read-out: Ki (nM ± SEM) MOR
[7] = Table 3-2, 3 independent experiments, read-out: Ki (nM ± SEM) DOR
[8] = Table 3-2, 3 independent experiments, read-out: Ki (nM ± SEM) KOR
[9] = Ki (nM ± SEM) a2A-AR, Table 3-2, 3 independent experiments
[10] = Table 3-3, 3 independent experiments, read-out: Ki (nM ± SEM) MOR
[11] = Table 3-3, 3 independent experiments, read-out: Ki (nM ± SEM) KOR
[12] = Table 3-3, 3 independent experiments, read-out: Ki (nM ± SEM) DOR
[13] = Table 3-3, 3 independent experiments, read-out: Ki (nM ± SEM) a2A-AR

hMOR, sequence (P35372 whole entry): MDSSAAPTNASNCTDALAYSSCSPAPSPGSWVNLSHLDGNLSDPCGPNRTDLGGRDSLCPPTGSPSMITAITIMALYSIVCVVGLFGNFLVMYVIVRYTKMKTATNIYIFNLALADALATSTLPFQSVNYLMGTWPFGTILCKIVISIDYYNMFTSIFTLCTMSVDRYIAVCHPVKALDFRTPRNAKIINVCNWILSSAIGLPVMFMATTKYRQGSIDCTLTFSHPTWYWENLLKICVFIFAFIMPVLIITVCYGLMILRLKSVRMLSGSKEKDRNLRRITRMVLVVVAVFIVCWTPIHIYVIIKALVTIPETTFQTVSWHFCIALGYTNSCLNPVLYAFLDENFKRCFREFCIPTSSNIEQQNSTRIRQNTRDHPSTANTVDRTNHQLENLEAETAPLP
hDOR, sequence (P41143 whole entry): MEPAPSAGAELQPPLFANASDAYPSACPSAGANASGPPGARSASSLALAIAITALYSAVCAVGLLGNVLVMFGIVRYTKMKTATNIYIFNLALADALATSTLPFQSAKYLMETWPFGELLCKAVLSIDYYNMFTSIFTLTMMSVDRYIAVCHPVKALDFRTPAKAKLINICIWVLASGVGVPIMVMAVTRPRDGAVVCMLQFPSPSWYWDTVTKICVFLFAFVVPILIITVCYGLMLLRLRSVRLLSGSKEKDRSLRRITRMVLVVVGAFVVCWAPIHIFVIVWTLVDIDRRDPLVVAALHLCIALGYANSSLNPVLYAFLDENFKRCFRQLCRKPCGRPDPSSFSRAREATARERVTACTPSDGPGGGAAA

Work on `COc1ccccc1C1(O)CCN2CCC(=O)CC2C1` (stereo not drawn) yielded a Ki (hMOR; [1]) greater than 10000 nM, a Ki (hDOR; [2]) greater than 10000 nM and a Ki (hKOR; [3]) greater than 10000 nM. For the same compound, the Ki (α2A adrenergic receptor; [4]) was 5750 ± 1170 nM.

In the case of `COC(=O)CC1CCN2CCC(c3ccccc3OC)=CC2C1` (stereo not drawn), the Ki (hMOR; [1]) is reported as greater than 10000 nM, the Ki (hDOR; [2]) is reported as greater than 10000 nM and the Ki (hKOR; [3]) is reported as greater than 10000 nM. It also gave a Ki (α2A adrenergic receptor; [4]) of 39 ± 3 nM.

With `COC(=O)CC1CCN2CC=C(c3ccccc3OC)CC2C1` (stereo not drawn) the Ki (hMOR; [1]) was greater than 10000 nM, the Ki (hDOR; [2]) was greater than 10000 nM and the Ki (hKOR; [3]) was greater than 10000 nM. It also gave a Ki (α2A adrenergic receptor; [5]) of 15 nM.

With `COC(=O)CC1CCN2CCC(c3ccccc3)=CC2C1` (stereo not drawn) the Ki (hMOR; [1]) was 7930 ± 1340 nM, the Ki (hDOR; [2]) was greater than 10000 nM and the Ki (hKOR; [3]) was 683 ± 142 nM. It also gave a Ki (α2A adrenergic receptor; [5]) of 5 ± 2 nM.

For `COC(=O)CC1CCN2CC=C(c3ccccc3)CC2C1` (stereo not drawn), the Ki (hMOR; [1]) was 6980 ± 1450 nM, the Ki (hDOR; [2]) was greater than 10000 nM and the Ki (hKOR; [3]) was 957 ± 188 nM. It also gave a Ki (α2A adrenergic receptor; [5]) of 7 ± 2 nM.

For `COC(=O)C=C1CCN2CCC(O)(c3ccc(F)cc3)CC2C1` (stereo not drawn), the Ki (hMOR; [1]) was 672 ± 222 nM, the Ki (hDOR; [2]) was greater than 10000 nM and the Ki (hKOR; [3]) was greater than 10000 nM. It also gave a Ki (α2A adrenergic receptor; [4]) of 311 ± 73 nM.

Compound `COC(=O)CC1CCN2CCC(O)(c3ccc(F)cc3)CC2C1` (stereo not drawn) has a Ki (hMOR; [1]) of 424 ± 203 nM, a Ki (hDOR; [2]) greater than 10000 nM and a Ki (hKOR; [3]) greater than 10000 nM. The Ki (α2A adrenergic receptor; [4]) was 240 ± 63 nM.

`COC(=O)CC1CCN2CCC(O)(c3ccccc3OC)CC2C1` (single isomer, unassigned) showed a Ki (hMOR; [1]) greater than 10000 nM, a Ki (hDOR; [2]) greater than 10000 nM and a Ki (hKOR; [3]) greater than 10000 nM. The Ki (α2A adrenergic receptor; [4]) was 3470 ± 1790 nM.

With `COC=C(C(=O)OC)C1CCN(CCc2c[nH]c3ccc(OC)cc23)CC1` [Compound 3-37] the “SR: Selectivity Ratio (KiMOR/Kiα2A)” value (hMOR; Table 3-2) was 0.22, the Ki (hMOR; [6]) was 733 ± 144 nM and the Ki (hDOR; [7]) was greater than 10000 nM. For the same compound, the Ki (hKOR; [8]) was 1300 ± 129 nM and the Ki (α2A adrenergic receptor; [9]) was 3370 ± 586 nM.

`COC(=O)CC1CCN(CCc2c[nH]c3ccc(OC)cc23)CC1` [Compound 3-38] showed a Ki (hMOR; [6]) greater than 10000 nM, a Ki (hDOR; [7]) greater than 10000 nM and a Ki (hKOR; [8]) of 8070 ± 810 nM. The Ki (α2A adrenergic receptor; [9]) was 1590 ± 225 nM.

Work on `COC=C(C(=O)OC)C1CCN(CCc2c[nH]c3cc(OC)ccc23)CC1` [Compound 3-39] yielded a Ki (hMOR; [6]) greater than 10000 nM, a Ki (hDOR; [7]) greater than 10000 nM and a Ki (hKOR; [8]) of 9450 ± 2970 nM. The Ki (α2A adrenergic receptor; [9]) was greater than 10000 nM.

With `COC(=O)CC1CCN(CCc2c[nH]c3cc(OC)ccc23)CC1` [Compound 3-40] the Ki (hMOR; [6]) was greater than 10000 nM, the Ki (hDOR; [7]) was greater than 10000 nM and the Ki (hKOR; [8]) was greater than 10000 nM. For the same compound, the Ki (α2A adrenergic receptor; [9]) was 2840 ± 599 nM.

`COC=C(C(=O)OC)C1CCN(CCc2c[nH]c3c(OC)cccc23)CC1` [Compound 3-41] was tested, and the “SR: Selectivity Ratio (KiMOR/Kiα2A)” value (hMOR; Table 3-2) was 1.04, the Ki (hMOR; [6]) was 5130 ± 8.35 nM and the Ki (hDOR; [7]) was greater than 10000 nM. The Ki (hKOR; [8]) was greater than 10000 nM and the Ki (α2A adrenergic receptor; [9]) was 4900 ± 829 nM.

For `COC(=O)CC1CCN(CCc2c[nH]c3ccccc23)CC1` [Compound 3-43], the Ki (hMOR; [10]) was 8910 ± 1800 nM, the Ki (hDOR; read-out: Ki (nM ± SEM) DOR, Table 3-3, 3 independent experiments) was greater than 10000 nM and the Ki (hKOR; [11]) was greater than 10000 nM. For the same compound, the Ki (α2A adrenergic receptor; read-out: Ki (nM ± SEM) a2A-AR, Table 3-3, 3 independent experiments) was 1840 ± 201 nM.

`COC(=O)CC1CCN(CCc2cn(CC(F)(F)F)c3ccccc23)CC1` [Compound 3-44] was tested, and the “SR: Selectivity Ratio (KiMOR/Kiα2A)” value (hMOR; Table 3-3) was 0.76, the Ki (hMOR; [10]) was 1480 ± 406 nM and the Ki (hDOR; [12]) was greater than 10000 nM. The Ki (hKOR; [11]) was greater than 10000 nM and the Ki (α2A adrenergic receptor; [13]) was 1940 ± 410 nM.

With `COC(=O)CC1CCN(CCc2cn(CCc3c[nH]c4ccccc34)c3ccccc23)CC1` [Compound 3-45] the “SR: Selectivity Ratio (KiMOR/Kiα2A)” value (hMOR; Table 3-3) was 1.32, the Ki (hMOR; [10]) was 9280 ± 1730 nM and the Ki (hDOR; [12]) was greater than 10000 nM. It also gave a Ki (hKOR; [11]) greater than 10000 nM and a Ki (α2A adrenergic receptor; [13]) of 7030 ± 2020 nM.

In the case of `COC(=O)CC1CCN(CC(=O)N2CCc3c(OC)cccc32)CC1` [Compound 3-46], the Ki (hMOR; [10]) is reported as greater than 10000 nM, the Ki (hDOR; [12]) is reported as greater than 10000 nM and the Ki (hKOR; [11]) is reported as greater than 10000 nM. It also gave a Ki (α2A adrenergic receptor; [13]) of 6370 ± 1160 nM.
